In patent publication US8912121B2, “Herbicidal compositions comprising 4-amino-3-chloro-5-fluoro-6-(4-chloro-2-fluoro-3-methoxyphenyl)pyridine-2-carboxylic acid or a derivative thereof and certain PS II inhibitors” (Dow Agrosciences LLC, priority 2012, dated 2014):

Key:
[1] = test system: IPOHE (Ipomoea hederacea, ivyleaf morningglory); experiment: Postemergence foliar-applied mixtures, direct seeded rice, greenhouse; assay type: in vivo, Ipomoea hederacea Jacq.; settings: post-emergence
Source text: (§1) Seeds or nutlets of the desired test plant species were planted in a soil matrix prepared by mixing a loam or sandy loam soil (e.g., 28.6 percent silt, 18.8 percent clay, and 52.6 percent sand, with a pH of about 5.8 and an organic matter content of about 1.8 percent) and calcareous grit in an 80 to 20 ratio. The soil matrix was contained in plastic pots with a volume of 1 quart and a surface area of 83.6 square centimeters (cm^2). When required to ensure good germination and healthy plants, a fungicide treatment and/or other chemical or physical treatment was applied. The plants were grown for 8-22 days in a greenhouse with an approximate 14 h photoperiod which was maintained at about 29° C. during the day and 26° C. during the night. Nutrients (Peters Excel® 15-5-15 5-Ca 2-Mg and iron chelate) were applied in the irrigation solution as needed and water was added on a regular basis. Supplemental lighting was provided with overhead metal halide 1000-Watt lamps as necessary. The plants were employed for testing when they reached the first through fourth true leaf stage.
(§2) Treatments consisted of the acid or esters of 4-amino-3-chloro-5-fluoro-6-(4-chloro-2-fluoro-3-methoxy-phenyl) pyridine-2-carboxylic acid (Compound A), each formulated as an SC (suspension concentrate), and various herbicidal components alone and in combination. Forms of compound A were applied on an acid equivalent basis.
(§3) Other herbicidal components were applied on an active ingredient basis and included Photosystem II (PSII)-inhibiting herbicides propanil formulated as Stam® M4 EC, bentazon-sodium formulated as Basagran®, atrazine formulated as Atrazine 90 WDG, bromoxynil octanoate ester formulated as Buctril®, simetryne (technical grade material), simazine formulated as Princep® Caliber 90, ioxynil (technical grade material), cyanazine (technical grade material), and hexazinone (technical grade material).
(§4) Treatment requirements were calculated based upon the rates being tested, the concentration of active ingredient or acid equivalent in the formulation, and a 12 mL application volume at a rate of 187 L/ha.
(§5) For treatments comprised of formulated compounds, measured amounts of compounds were placed individually in 25 mL glass vials and diluted in a volume of 1.25% (v/v) Agri-Dex® crop oil concentrated to obtain 12× stock solutions. […] Application solutions were prepared by adding an appropriate amount of each stock solution (e.g., 1 mL) and diluted to the appropriate final concentrations with the addition of 10 mL of an aqueous mixture of 1.25% (v/v) crop oil concentrate so that the final spray solutions contained 1.25+/−0.05% (v/v) crop oil concentrate.
(§6) For treatments comprised of technical compounds, weighed amounts can be placed individually in 25 mL glass vials and dissolved in a volume of 97:3 v/v acetone/DMSO to obtain 12× stock solutions. […] Application solutions can be prepared by adding an appropriate amount of each stock solution (e.g., 1 mL) and diluted to the appropriate final concentrations with the addition of 10 mL of an aqueous mixture of 1.5% (v/v) crop oil concentrate so that the final spray solutions contain 1.25% (v/v) crop oil concentrate. When technical materials are used, the concentrated stock solutions can be added to the spray solutions so that the final acetone and DMSO concentrations of the application solutions are 16.2% and 0.5%, respectively.
(§7) For treatments comprised of formulated and technical compounds, weighed amounts of the technical materials were placed individually in 25 mL glass vials and dissolved in a volume of 97:3 v/v acetone/DMSO to obtain 12× stock solutions, and measured amounts of the formulated compounds were placed individually in 25 mL glass vials and diluted in a volume of 1.5% (v/v) crop oil concentrate or water to obtain 12× stock solutions. […]

[2] = test system: BRAPP (Brachiaria platyphylla, broadleaf signalgrass); experiment: Pre-emergence soil-applied mixtures, greenhouse; assay type: in vivo, Brachiaria platyphylla (Groseb.) Nash; settings: 27 DAA
Source text: (§8) Seeds or nutlets of the desired test plant species were planted in a soil matrix prepared by mixing a loam soil (32 percent silt, 23 percent clay, and 45 percent sand, with a pH of about 6.5 and an organic matter content of about 1.9 percent) and calcareous grit in an 80 to 20 ratio. The soil matrix was contained in plastic pots with a volume of 1 quart and a surface area of 83.6 square centimeters (cm^2).
(§9) Treatments consisted of the benzyl ester of 4-amino-3-chloro-5-fluoro-6-(4-chloro-2-fluoro-3-methoxy-phenyl)pyridine-2-carboxylic acid (compound A) formulated as an SC (suspension concentrate) and various herbicidal components alone and in combination. Forms of compound A were applied on an acid equivalent basis.
(§10) Other herbicidal components were applied on an acid equivalent or active ingredient basis and included the PSII-inhibiting herbicides, atrazine formulated as Atrazine® 90WDG, metribuzin formulated as Metribuzin 75DF, simazine formulated as Princep Caliber 90, tebuthiuron formulated as Spike 80DF, cyanazine (technical grade material), hexazinone (technical grade material), linuron (technical grade material), terbuthylazine (technical grade material), and diuron formulated as Diuron 4L.
as §4
(§11) For treatments comprised of formulated compounds, measured amounts of compounds were placed individually in 25 mL glass vials and diluted in a volume of 1.25% (v/v) Agri-Dex® crop oil concentrate (COC) to obtain 12× stock solutions. […] Application solutions were prepared by adding an appropriate amount of each stock solution (e.g., 1 mL) and diluted to the appropriate final concentrations with the addition of 10 mL of an aqueous mixture of 1.25% (v/v) COC so that the final spray solutions contained 1.25% (v/v) COC.
as §6, with “97:3 (v/v)” for “97:3 v/v”, “(v/v) COC” for “(v/v) crop oil concentrate”, “(v/v) COC.” for “(v/v) crop oil concentrate.”
(§12) For treatments comprised of formulated and technical compounds, weighed amounts of the technical materials can be placed individually in 25 mL glass vials and dissolved in a volume of 97:3 (v/v) acetone/DMSO to obtain 12× stock solutions, and measured amounts of the formulated compounds can be placed individually in 25 mL glass vials and diluted in a volume of 1.5% (v/v) COC or water to obtain 12× stock solutions. […] Application solutions can be prepared by adding an appropriate amount of each stock solution (e.g., 1 mL) and diluted to the appropriate final concentrations with the addition of an appropriate amount of an aqueous mixture of 1.5% (v/v) COC so that the final spray solutions contain 1.25% (v/v) COC. As required, additional water and/or 97:3 (v/v) acetone/DMSO can be added to individual application solutions so that the final acetone and DMSO concentrations of the application solutions being compared are 8.1% and 0.25%, respectively.
(§13) All stock solutions and applications solutions were visually inspected for compound compatibility prior to application. Spray solutions were applied to the soil with an overhead Mandel track sprayer equipped with a 8002E nozzles calibrated to deliver 187 L/ha over an application area of 0.503 m^2 at a spray height of 18 inches (46 cm) above average pot height. […]

[3] = test system: ECHCO (Echinochloa colona, junglerice); experiment: Postemergence foliar-applied mixtures, direct seeded rice, greenhouse; assay type: in vivo, Echinochloa colona (L.) Link; settings: 21 DAA
Source text: as §1, §2, §3, §4, §5, §6, §7

[4] = test system: ECHCG (Echinochloa crusgalli, barnyardgrass); experiment: as above; assay type: in vivo, Echinochloa crusgalli (L.) Beauv.; settings: 625 g ai/ha; 21 DAA
Protocol: as §1, with “When required to ensure good germination and healthy plants, a fungicide treatment and/or other chemical or physical treatment was applied.” left out
as §2, §3, §5, §6
For treatments comprised of formulated and technical compounds, weighed amounts of the technical materials were placed individually in 25 mL glass vials and dissolved in a volume of 97:3 v/v acetone/DMSO to obtain 12× stock solutions, and measured amounts of the formulated compounds were placed individually in 25 mL glass vials and diluted in a volume of 1.5% (v/v) crop oil concentrate or water to obtain 12× stock solutions. […] Application solutions were prepared by adding an appropriate amount of each stock solution (eg, 1 mL) and diluted to the appropriate final concentrations with the addition of an appropriate amount of an aqueous mixture of 1.5% (v/v) crop oil concentrate so that the final spray solutions contained 1.25% (v/v) crop oil concentrate.

[5] = test system: XANST (Xanthium strumarium, common cocklebur); experiment: Pre-emergence soil-applied mixtures, greenhouse; assay type: in vivo, Xanthium strumarium L.; settings: Terbuthylazine 1000 g ai/ha; 27 DAA
Source text: as §8, §9, §10, §4, §11
as §6, with “97:3 (v/v)” for “97:3 v/v”, “(v/v) COC” for “(v/v) crop oil concentrate”, “(v/v) COC.” for “(v/v) crop oil concentrate.”
as §12, §13

CCNc1nc(Cl)nc(NC(C)(C)C#N)n1 [Cyanazine, 2-[[4-chloro-6-(ethylamino)-1,3,5-triazin-2-yl]amino]-2-methylpropanenitrile]
pest or weed control at 275 g/ha ([1]; 480 h, read-out: Visual Weed Control (%) Obs, 275 g ai/ha, 20 DAA): 50% | Visual Weed Control (%) - 27 DAA BRAPP Obs ([2]; Cyanazine 170 g ai/ha): 0% | Visual Weed Control (%) - 27 DAA BRAPP Obs ([2]; Cyanazine 440 g ai/ha): 15% | Visual Weed Control (%) - 27 DAA BRAPP Obs ([2]; Cyanazine 880 g ai/ha): 10%

CN(C)c1nc(=O)n(C2CCCCC2)c(=O)n1C [Hexazinone, 3-cyclohexyl-6-(dimethylamino)-1-methyl-1,3,5-triazine-2,4(1H,3H)-dione, reference compound]
Visual Weed Control (%) Obs ([3]; 625 g ai/ha): 25% | Visual Weed Control (%) Obs ([3]; 1250 g ai/ha): 55% | Visual Weed Control (%) Obs [4]: 20% | pest or weed control at 625 g/ha ([1]; 504 h, 625 g ai/ha, 21 DAA, read-out: Visual Weed Control (%) Obs): 80%

N#Cc1cc(I)c(O)c(I)c1 [Ioxynil, 4-hydroxy-3,5-diiodobenzonitrile, reference compound]
pest or weed control at 300 g/ha ([1]; 480 h, read-out: Visual Weed Control (%) Obs, 300 g ai/ha, 20 DAA): 50%

CON(C)C(=O)Nc1ccc(Cl)c(Cl)c1 [Linuron, N′-(3,4-dichlorophenyl)-N-methoxy-N-methylurea]
Visual Weed Control (%) - 27 DAA BRAPP Obs ([2]; Linuron 620 g ai/ha): 0%

CCNc1nc(Cl)nc(NC(C)(C)C)n1 [Terbuthylazine, 6-chloro-N-(1,1-dimethylethyl)-N′-ethyl-1,3,5-triazine-2,4-diamine, reference compound]
Visual Weed Control (%) - 27 DAA XANST Obs [5]: 45%
